Reference: patent US20190307843A1, “SINGLE DOSE METHODS FOR PREVENTING AND TREATING FUNGAL INFECTIONS” (Cidara Therapeutics, Inc., priority 2016, published 2019)
Converted amounts (≈) assume the structure as drawn. “And” between values parts separate entries of the source, which are not always exact repeats. Equal values may be shown once. Starred links: 1 amine or outer side, 2 acyl side, 3 side chain; linkers in the order of their positions; H or OH if unused. Positions of bridges follow the written chain, without caps; N, C: chain ends. Non-standard residues stand in square brackets, D forms with d. Residues, ends and D or L forms follow the SMILES beside them. *: point of attachment. pTerphenylCO(4''-OnC5H11) = CCCCCOc1ccc(-c2ccc(-c3ccc(C(=O)*)cc3)cc2)cc1; Orn(4R-OH,5R-OH) = O=C([C@H](C[C@@H](O)[C@@H](O)N[*:3])N[*:1])[*:2]; hTyr(3S-OH,4S-OH) = N[C@H](C(=O)O)[C@H](O)[C@@H](O)c1ccc(O)cc1; Pro(3S-OH,4S-Me) = C[C@H]1CN[C@H](C(=O)O)[C@H]1O; Hyp = O=C(O)[C@@H]1C[C@@H](O)CN1

What was measured:
[1] = test system: C. parapsilosis; experiment: In vitro susceptibility testing (CLSI M27-A3), C. parapsilosis; type: cell-based, Candida parapsilosis; settings: Lodderomyces parapsilosis, 24 h
Protocol: (§1) Ten clinical Candida strains were used for the in vivo treatment studies, including four C. albicans, three C. glabrata, and three C. parapsilosis strains (Table 15). This group was selected to encompass phenotypic variability in susceptibility to triazoles and echinocandins and based on similar fitness in the animal model as defined by the amount of growth in control animals over 24 h. The organisms were maintained, grown, and quantified on Sabouraud's dextrose agar (SDA) plates.
(§2) In vitro susceptibility testing. All isolates were tested in accordance with the standards in CLSI document M27-A3. The MICs were determined visually after 24 h of incubation as the lowest concentration of drug that causes a significant diminution (50%) of growth compared to controls. MICs were determined on three separate occasions in duplicate.

[2] = test system: C. albicans; experiment: In vitro susceptibility testing (CLSI M27-A3), C. albicans; type: cell-based; settings: Candida albicans, 24 h
Protocol: as §1, §2

[3] = test system: C. glabrata; experiment: In vitro susceptibility testing (CLSI M27-A3), C. glabrata; type: cell-based, Candida glabrata; settings: Nakaseomyces glabratus, 24 h
Protocol: as §1, §2

[4] = test system: Aspergillus fumigatus (ATCC 13073); experiment: Prophylaxis, neutropenic ICR mouse disseminated aspergillosis model, survival; settings: amphotericin B at 3 mg/kg IP administered one hour after infection
[5] = test system: Aspergillus fumigatus (ATCC 13073); experiment: Neutropenic mouse aspergillosis model, survival; type: in vivo; settings: AmB 2 mg/kg IP one dose; 10 days
[6] = test system: C. auris; experiment: Murine model of disseminated candidiasis, C. auris infection, kidney CFU and survival; type: in vivo, Candida auris; settings: amphotericin B 0.3 mg/kg IP, 2 doses; Day 14
[7] = test system: A. fumigatus AF293; experiment: Murine model of pulmonary aspergillosis (Example 19), terminal lung burden; type: in vivo, Aspergillus fumigatus
Protocol: A secondary endpoint for the study was terminal lung tissue burden. Immediately following confirmation of death, carcasses were frozen at −20° C. prior to tissue dissection and processing. The frozen carcasses were thawed at room temperature, the lungs removed and placed into pre-weighed bead-beating tubes containing 2 mL of PBS and subjected to mechanical disruption. Organ homogenates were diluted further in PBS and quantitatively cultured for A. fumigatus onto SABC and incubated at 30° C. for 24-48 hours.
2. Lung tissue burden data were analysed using the non-parametric Kruskal-Wallis test and if this was statistically significant all pairwise comparisons were analyzed (Conover-Inman).

[8] = test system: A. fumigatus AF293; experiment: Murine model of pulmonary aspergillosis (Example 19), survival; settings: for Mean Survival / Median Survival: Day 1 pre-infection
[9] = test system: A. fumigatus AF293; experiment: Pulmonary aspergillosis, prophylaxis, neutropenic ICR mice (Examples 17, 18), survival; type: in vivo, Aspergillus fumigatus
Protocol: Intranasal infection with A. fumigatus AF293 (10^5 CFU/mouse) on Day 0. Prophylaxis CD101 as a single dose (IP; 5, 10, 20 mg/kg) or posaconazole (PO; 2 and 10 mg/kg) 1 day prior to infection. Survival monitored for 10 days.
Intranasal challenge with A. fumigatus AF293 (10^5 CFU/mouse) was initiated on Day 0 and prophylaxis with CD101 as a single dose (IP; 5, 10, 20 mg/kg) or posaconazole (PO; 2 and 10 mg/kg) was started 1 day prior to infection. Survival was monitored for 10 days.

[10] = Posaconazole 10 mg/kg PO Day −1
[11] = Vehicle vs. Posaconazole 10 mg/kg

SMILES: CCCCCOc1ccc(-c2ccc(-c3ccc(C(=O)N[C@H]4C[C@@H](O)[C@@H](O)NC(=O)[C@@H]5[C@@H](O)[C@@H](C)CN5C(=O)[C@H]([C@@H](C)O)NC(=O)[C@H]([C@H](O)[C@@H](O)c5ccc(O)cc5)NC(=O)[C@@H]5C[C@@H](O)CN5C(=O)[C@H]([C@@H](C)O)NC4=O)cc3)cc2)cc1 [Anidulafungin, anidulafungin, reference compound] ({pTerphenylCO(4''-OnC5H11)}-[Orn(4R-OH,5R-OH)]T[Hyp][hTyr(3S-OH,4S-OH)]T[Pro(3S-OH,4S-Me)]; lactam 1-C)
- MIC ([1]; C. parapsilosis 20423.072): 1 µg/mL (≈ 0.877 µM)
- MIC ([1]; C. parapsilosis 20477.048): 2 µg/mL (≈ 1.75 µM)
- MIC ([1]; C. parapsilosis 20519.069): 4 µg/mL (≈ 3.51 µM)
- MIC ([2]; C. albicans 98-17): 0.03 µg/mL (≈ 0.0263 µM)
- MIC ([2]; C. albicans 98-210): 0.015 µg/mL (≈ 0.0132 µM)
- MIC ([2]; C. albicans 580): 0.015 µg/mL (≈ 0.0132 µM)
- MIC ([2]; C. albicans K-1, 50% growth diminution): 0.015 µg/mL (≈ 0.0132 µM)
- MIC ([3]; C. glabrata 5592): 0.06 µg/mL (≈ 0.0526 µM)
- MIC ([3]; C. glabrata 10956): 1 µg/mL (≈ 0.877 µM)
- MIC ([3]; C. glabrata 35315): 0.25 µg/mL (≈ 0.219 µM)

SMILES: C[C@@H]1[C@H](O)[C@@H](C)/C=C/C=C/C=C/C=C/C=C/C=C/C=C/[C@H](O[C@@H]2O[C@H](C)[C@@H](O)[C@H](N)[C@@H]2O)C[C@@H]2O[C@](O)(C[C@@H](O)C[C@@H](O)[C@H](O)CC[C@@H](O)C[C@@H](O)CC(=O)O[C@H]1C)C[C@H](O)[C@H]2C(=O)O [AmB, amphotericin B, reference compound]
- 14-day survival [4]: significant increase in the 14-day survival
- survival vs vehicle [5]: significantly longer survival than vehicle
- percent survival at the end of the study [6]: 30%

SMILES: CC[C@@H]([C@H](C)O)n1ncn(-c2ccc(N3CCN(c4ccc(OC[C@@H]5CO[C@@](Cn6cncn6)(c6ccc(F)cc6F)C5)cc4)CC3)cc2)c1=O [Posaconazole, posaconazole]
- Group Geometric mean (lung burden) ([7]; Posaconazole 2 mg/kg PO Day −1): 1.14 × 10^4 CFU/g
- Log10 Group Geometric mean (lung burden) ([7]; Posaconazole 2 mg/kg PO Day −1): 4.06 CFU/g
- Log10 reduction from vehicle control ([7]; Posaconazole 2 mg/kg PO Day −1): 0.11 CFU/g
- Group Geometric mean (lung burden) [7, 10]: 2.75 × 10^3 CFU/g
- Log10 Group Geometric mean (lung burden) [7, 10]: 3.44 CFU/g
- Log10 reduction from vehicle control [7, 10]: 0.73 CFU/g
- survival time post infection, range ([8]; Posaconazole 2 mg/kg PO once): 69 to 114 h
- Mean Survival ([8]; Posaconazole 2 mg/kg PO once): 77.5 h
- Median Survival ([8]; Posaconazole 2 mg/kg PO once): 69.0 h
- survival time post infection, range ([8]; Posaconazole 10 mg/kg PO once): 69 to 240 h
- Mean Survival ([8]; Posaconazole 10 mg/kg PO once): 212 h and 211.5 h
- Median Survival ([8]; Posaconazole 10 mg/kg PO once): cannot estimate
- mice surviving to the end of the study ([8]; Posaconazole 10 mg/kg PO, 6/treatment group, 10 days): 5
- Wilcoxon (Peto-Prentice) test, survival ([8]; Vehicle vs. Posaconazole 2 mg/kg): P = 0.0391
- Log-Rank test, survival [8, 11]: P = 0.0182
- Wilcoxon (Peto-Prentice) test, survival [8, 11]: P = 0.0441
- survival compared to the vehicle mice ([8]; posaconazole 2 mg/kg once one day pre-infection): did not show any improvement in survival
- mice surviving to the end of the study ([8]; posaconazole 10 mg/kg once 1 day pre-infection): > 80%
- survival ([9]; posaconazole 2 mg/kg PO 1 day prior to infection): no survivors
- survival rate relative to control ([9]; posaconazole 10 mg/kg PO 1 day prior to infection): statistically-significant increase in survival rate relative to control
